# What was measured:
# [1] = test system: mutant BRAF melanoma cells; assay: 3D organotypic spheroids, mutant BRAF; type: cell-based, human; details: collagen-embedded, 72 h
# Experimental: For analysis of tumor cell survival in 3D organotypic cultures, melanoma spheroids were prepared as previously described. Briefly, 50 μl aliquots of the various melanoma cell types (5×10^4 cells/ml) were seeded onto 96-well plates coated with 1.5% agar (Difco, Sparks, Md.) in PBS. Spheroids were allowed to form for 72 h and then embedded in 100 μl of bovine collagen type I (Organogenesis, Canton, Mass.). Spheroids were overlaid with 100 μl of Tu2% growth medium and treated with inhibitors for 72 hours. Quantification of live vs. dead cells under the various conditions tested was performed by staining the melanoma spheroids after 72 h of treatment with calcein-AM (live) and Topro-3 (dead) (Invitrogen) for 1 h (data not shown).
# WT BRAF melanoma cells = assay: AMPK and autophagy signaling in WT BRAF melanoma cells; type: cell-based, human
# Description: Human glioblastoma LN229, prostate adenocarcinoma PC3 or LNCaP cells, or normal NIH3T3 fibroblasts were obtained from the American Tissue Culture Collection (ATCC, Manassas, Va.), and maintained in culture according to the supplier's specifications. The following wild type (WT) BRAF N-Ras mutant melanoma cells WM852 and WM1366, and melanoma cells carrying a V600E activating mutation in the BRAF oncogene, 451Lu, Me11617 and WM983B were used in this study. WT or CypD knockout Mouse Embryonic Fibroblasts (MEFs, CypD−/−) were characterized earlier 40. In some experiments, CypD−/− MEFs were stably transfected with control plasmid, WT CypD or peptidyl prolyl isomerase (PPIase)-deficient H168Q CypD mutant cDNA, and analyzed for differential recruitment of HK-II to mitochondrial or cytosolic fractions.
# (§1) For Western blotting, protein lysates were prepared from the different cell types in RIPA Buffer (150 mM NaCl, 1.0% Triton X-100, 0.5% sodium deoxycholate, 0.1% SDS, 50 mM Tris, pH 8.0) containing EDTA-free Protease Inhibitor Cocktail (Roche) and Phosphatase Inhibitor Cocktail 2 and 3 (Sigma Aldrich). Equal amounts of protein lysates were separated by SDS gel electrophoresis, transferred to PVDF membranes and incubated with primary antibodies of various specificities. Protein bands were detected by chemiluminescence.
# Samples were imaged using a Leica TCS SP2 confocal microscope. For determination of autophagy, cells under the various conditions tested were harvested after 12 h, and analyzed with an antibody to […] (LC3) by Western blotting.
# mTORC1 = mTORC1 signaling in tumor cells, Western blotting; type: cell-based, human
# [2] = test system: AMP-activated kinase (AMPK); assay: AMPK phosphorylation in tumor cells, Western blotting; type: cell-based, human
# [3] = test system: FF2508 or MRC5 primary human fibroblasts; assay: AMPK activation in normal fibroblasts; type: cell-based
# Experimental: as §1
# LN229 cells [4] = assay: Cell viability by MTT; type: cell-based, human; details: Gamitrinib combined with 2-DG vs each agent alone
# Experimental: (§2) Various cell types were seeded in triplicate onto 96-well plates at 4×10^3 cells/well, treated with vehicle, Gamitrinib or 17-AAG (0-20 μM) for 12 h, and analyzed for changes in metabolic activity by an MTT assay. For determination of apoptosis, LN229 cells ([…]) were labeled for annexin V and propidium iodide (PI) (BD Biosciences), and analyzed by multiparametric flow cytometry (BD).
# [5] = test system: BRAF V600E melanoma cells; assay: Melanoma cell viability by MTT, BRAF V600E; type: cell-based, human
# Experimental: as §2
# CypD = assay: Mitochondrial protein folding (detergent solubility); type: cell-based, human; details: increasing CHAPS concentrations
# Experimental: Mitochondrial protein folding assays were performed as described (Moisoi et al., 2009). Briefly, mitochondrial fractions were isolated from vehicle- or Gamitrinib-treated LN229 cells (5 μM for 12 h) and suspended in equal volume of mitochondrial fractionation buffer containing increasing concentrations of CHAPS (0, 0.05, 0.1, 0.2, 0.5, 1 or 2%). Samples were incubated for 20 min on ice and detergent-insoluble protein aggregates were isolated by centrifugation (20,000 g) for 20 min. Pellets were processed for further analysis.
# tumor cells = assay: ER UPR markers (Western blotting, Xbp1 splicing, RT-qPCR); type: cell-based, human
# LN229 cells [6] = assay: Glucose utilization; type: cell-based, human; details: tumor cells
# Experimental: Glucose concentrations in cell culture media were determined using a Glucose kit (Sigma-Aldrich). Briefly, 2×10^6 cells were seeded in 10 cm2 tissue culture dishes for 48 h, mixed with DMEM in the presence of Gamitrinib or 17-AAG (0-20 μM) for additional 4 h, and 200 μl aliquots of culture medium were incubated with 1 ml assay mixture, containing 1.5 mM NAD, 1 mM ATP, 1.0 U/ml Hexokinase, and 1.0 U/ml G6PDH. The glucose concentration under the various conditions was determined by measuring the amount of reduced NAD to NADH by G6PDH, and quantified spectrophotometrically at 340 nm wavelength. Extracellular lactate was measured by a colorometric assay kit (Abcam). Culture media from LN229 cells was replaced with DMEM containing vehicle (DMSO) or Gamitrinib (5 μM) for 5 h. Changes in lactate concentrations were measured by analysis of lactate-dependent conversion of NADP to NADPH in the presence of excess lactate dehydrogenase (LDH), and quantified by absorbance at 450 nm. All assays were performed at 25° C. under conditions of linear lactate-limited NADPH formation.
# BRAF WT melanoma cells = assay: Melanoma cell viability by MTT, BRAF WT; type: cell-based, human
# Experimental: as §2
structure (smiles),measurement,setting,value
CO[C@H]1/C=C\C=C(/C)C(=O)NC2=CC(=O)C(NCCCCCC[P+](c3ccccc3)(c3ccccc3)c3ccccc3)=C(C[C@@H](C)C[C@H](OC)[C@H](O)[C@@H](C)/C=C(\C)[C@@H]1OC(N)=O)C2=O [Gamitrinib],cell killing in 3D spheroids,[1],efficiently killed
same,concentrations that killed cells in 3D spheroids,[1],1 to 3 µM
same,autophagy,WT BRAF melanoma cells; WT BRAF cells,stimulated autophagy
same,AMPK phosphorylation,WT BRAF melanoma cells; WT BRAF melanoma cells,induced AMPK phosphorylation
same,"phosphorylation of mTOR, 4EBP1 and p70S6 (mTORC1)",mTORC1,"concentration dependent suppression of phosphorylation of mTOR, and its downstream kinases 4EBP1 and p70S6"
same,"AMPK and eIF2α phosphorylation, combined with 2-DG",[2]; Gamitrinib combined with 2-DG,maximally stimulated AMPK and eIF2α phosphorylation
same,"AMPK phosphorylation, combination of metformin plus Gamitrinib",[2]; combination with metformin,did not further stimulate AMPK phosphorylation
same,AMPK activation compared with metformin,[2]; tumor cells,more prominent than that induced by metformin
same,AMPK activation remained sustained,[2]; tumor cells,≥ 9 h
same,AMPK phosphorylation,[2]; tumor cells,concentration dependent phosphorylation of AMP-activated kinase (AMPK)
same,onset of AMPK activation,[2]; tumor cells,≤ 30 min
same,total AMPK levels,[2]; tumor cells,not affected
same,AMPK activation,[3],did not activate AMPK
same,"tumor cell killing, combined with 2-DG",LN229 cells [4],increased tumor cell killing
same,IC50,[5],1.95 ± 0.21 µM
same,COX-IV solubility,CypD,indistinguishable in control or Gamitrinib-treated cells
same,CypD solubility,CypD; vs untreated cultures,caused CypD to remain insoluble over a broad range of detergent concentrations
same,"Grp78, CHOP or C/EBPβ expression, combined with 2-DG",tumor cells; Gamitrinib combined with 2-DG,"translational suppression of Grp78, CHOP or C/EBPβ"
same,"mRNA expression of CHOP, C/EBPβ and Grp78",tumor cells; quantitative PCR,"time-dependent upregulation of ER UPR markers, CHOP, C/EBPβ and Grp78"
same,C/EBPβ and CHOP expression,tumor cells; tumor cells,"induction of transcription factors, CCAAT-enhancer binding protein (C/EBPβ) and C/EBP homology protein (CHOP)"
same,Grp78 expression,tumor cells; tumor cells,"upregulation of the ER chaperone, Grp78"
same,Xbp1 mRNA splicing,tumor cells; tumor cells,"de novo mRNA splicing, i.e. activation, of its target, X-Box Protein-1, Xbp1"
same,eIF2α phosphorylation,tumor cells; tumor cells,transient phosphorylation of PERK-regulated eIF2α
same,time to induction of ER UPR,tumor cells; tumor cells,≤ 1 h
same,IRE-1 expression,tumor cells; within 1 h,increased expression of Inositol-Requiring-1 (IRE-1) kinase
same,glucose utilization,LN229 cells [6],reduced glucose utilization
same,IC50,BRAF WT melanoma cells,6 ± 1.4 µM
